According to ChEMBL document CHEMBL1201862, “PubChem BioAssay data set” (2004):
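Values below derive from 48-hour exposures of cells grown in 96-well plates, with endpoints linearly interpolated between the two concentrations bracketing the appropriate inhibition level. GI50 = concentration required for 50% inhibition of growth.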 Activity calls are given as the source filed them. No stated cut-off is given here; in the data, active = GI50 up to about 1.1 µM and inactive = higher.

Legend:
Test in all cases: NCI tumour cell line growth inhibition, 48 h
786-0 = test system: 786-0
A549 = test system: A549
CCRF-CEM = test system: CCRF-CEM
COLO 205 = test system: COLO 205
HCC 2998 = test system: HCC 2998
IGROV-1 = test system: IGROV-1
M14 = test system: M14
MCF7 = test system: MCF7
MOLT-4 = test system: MOLT-4
NCI/ADR-RES = test system: NCI/ADR-RES
OVCAR-8 = test system: OVCAR-8
RPMI-8226 = test system: RPMI-8226
SF-295 = test system: SF-295
SK-MEL-28 = test system: SK-MEL-28
SK-MEL-5 = test system: SK-MEL-5
SK-OV-3 = test system: SK-OV-3
SNB-19 = test system: SNB-19
SR = test system: SR
U-251 = test system: U-251
UACC-62 = test system: UACC-62

Measured: GI50

CCOP(=O)(CN1CCNCCNCC1)OCC
inactive: 786-0 > 100 µM | A549 > 100 µM | CCRF-CEM > 100 µM | COLO 205 > 100 µM | HCC 2998 > 100 µM | IGROV-1 > 100 µM | M14 > 100 µM | MCF7 > 100 µM | MOLT-4 > 100 µM | NCI/ADR-RES > 100 µM | OVCAR-8 > 100 µM | RPMI-8226 > 100 µM | SF-295 > 100 µM | SK-MEL-28 > 100 µM | SK-MEL-5 > 100 µM | SK-OV-3 > 100 µM | SNB-19 > 100 µM | SR > 100 µM | U-251 > 100 µM | UACC-62 > 100 µM

CC(=O)O[C@@H]1C=C(C)[C@H](CBr)O[C@@]2(C)CC[C@H](Br)C(C)(C)[C@H]12
inactive: 786-0 > 100 µM | A549 > 100 µM | CCRF-CEM 19.4 µM | COLO 205 > 100 µM | HCC 2998 > 100 µM | IGROV-1 > 100 µM | M14 > 100 µM | MCF7 > 100 µM | MOLT-4 77.6 µM | NCI/ADR-RES 2.94 µM | OVCAR-8 > 100 µM | RPMI-8226 > 100 µM | SF-295 > 100 µM | SK-MEL-28 > 100 µM | SK-MEL-5 > 100 µM | SK-OV-3 > 100 µM | SNB-19 > 100 µM | SR 41.2 µM | U-251 > 100 µM | UACC-62 > 100 µM

CCC(=O)O[C@H]1CC[C@H]2[C@@H]3CCC4=C/C(=N/NC(=O)c5cccc6c(=O)c7ccccc7[nH]c56)CC[C@]4(C)[C@H]3CC[C@]12C
inactive: 786-0 5.11 µM | A549 > 25 µM | CCRF-CEM > 25 µM | COLO 205 > 25 µM | HCC 2998 > 25 µM | IGROV-1 > 25 µM | M14 > 25 µM | MCF7 > 25 µM | MOLT-4 > 25 µM | NCI/ADR-RES > 25 µM | OVCAR-8 > 25 µM | RPMI-8226 > 25 µM | SF-295 > 25 µM | SK-MEL-28 > 25 µM | SK-MEL-5 > 25 µM | SK-OV-3 > 25 µM | SNB-19 > 25 µM | SR > 25 µM | U-251 > 25 µM | UACC-62 > 25 µM

COc1cc([C@H]2c3cc4c(cc3O[C@@]3(O)COC(=O)[C@@H]23)OCO4)cc(OC)c1OC
inactive: 786-0 > 100 µM | A549 > 100 µM | CCRF-CEM > 100 µM | COLO 205 > 100 µM | HCC 2998 > 100 µM | IGROV-1 > 100 µM | M14 > 100 µM | MCF7 > 100 µM | MOLT-4 > 100 µM | NCI/ADR-RES > 100 µM | OVCAR-8 > 100 µM | RPMI-8226 > 100 µM | SF-295 > 100 µM | SK-MEL-28 > 100 µM | SK-MEL-5 > 100 µM | SK-OV-3 > 100 µM | SNB-19 > 100 µM | SR > 100 µM | U-251 > 100 µM | UACC-62 > 100 µM
